For data set [1], the system named is HIV-1 gene expression in J.Lat10.6 latently infected T-cell line. The data set is described as follows: cells. It counts as cell-based. Conditions: for IC50: Human immunodeficiency virus 1, J-Lat 10.6, 48 h, read-out: IC50 for reactivation of HIV-1 gene expression; for percent of the cells treated with reactivated HIV-1 gene expression: J.Lat10.6 model, alone at 10 μM and in combination, 48 hrs post treatment. The protocol: The J.Lat10.6 latently infected T-cell line was treated with 4 compounds of the present invention, DP#6 (Compound 41), DP#14 (Compound 7), DP#18 (Compound 65), and DP#19 (Compound 73) and reactivated for 48 hrs. HIV-1 reactivation was measured by flowcytometry for GFP expression. Error bars represent standard deviation of n=3 experiments.
FIG. 45. […] The J.Lat10.6 model of HIV-1 latency was treated with JQ1 (+) and DP#14 (Compound 7) alone at 10 μM and in combination, and the HIV-1 gene expression measured 48 hrs post treatment. Error bars represent standard deviation of n=3 experiments. OPTI represents media alone, without DP#14.
FIG. 47. […] The J.Lat10.6 model of HIV-1 latency was treated with PFI-1 and DP#14 alone at 10 μM and in combination, and the HIV-1 gene expression measured 48 hrs post treatment. Error bars represent standard deviation of n=3 experiments. OPTI represents media alone, without DP#14.
Compounds were also evaluated in a dose ranging titration with HIV latently infected cell lines (J.Lat 6.3 and 10.6). The specificity of the selected compounds in these cell line models, were measured by inserting a CMV-DS.Red reporter into these cells to co-ordinately measure HIV specific LTR-Green fluorescent protein and non-specific DS.Red expression during FACS analysis.
The J.Lat model of HIV-1 latency is a well-established model used widely and is described in detail in the following paper:
HIV reproducibly establishes a latent infection after acute infection of T cells in vitro, Eric Verdin et al, The EMBO Journal Vol. 22 No. 8 pp 1868-1877, 2003

For data set [2], the system named is latent HIV in resting memory CD4+ T cells isolated by leukapheresis from HIV+ donors on antiretroviral therapy. The class given is cell-based, HIV-1. Conditions: 72 hrs. The source says: FIG. 41a. […] Resting memory CD4+ T cells isolated by leukapheresis from HIV+ donors on antiretroviral therapy were reactivated for 72 hrs using known LRAs including vorinostat (Vor) also known as suberanilohydroxamic acid, another hydroxamic acid panobinostat (Pan), and the depsipeptide Romidepsin (Rom) that are all HDACi, together with JQ1 (+) which is a thienotriazolodiazepine known to inhibit the BET family of bromodomain proteins including BRD2, BRD3, and BRD4, and compared with compounds according to the present invention DP#6 (Compound 41), DP#14 (Compound 7), and DP#16 (Compound 64).
FIG. 41c. […] Resting memory CD4+ T cells isolated by leukapheresis from HIV+ donors on antiretroviral therapy were reactivated for 72 hrs using known (vorinostat, Vor; panobinostat, Pan; romidepsin, Rom; and JQ1 (+)) and compounds according to the present invention (DP#6 (Compound 41), DP#14 (Compound 7), and DP#16 (Compound 64)).
FIG. 42c. […] Resting memory CD4+ T cells isolated by leukapheresis from HIV+ donors on antiretroviral therapy were reactivated for 72 hrs using known (JQ1 (+)) and compounds according to the present invention (DP#14 (Compound 7)) alone and in combination, and HIV-1 RNA detected through qPCR.
Total peripheral blood mononuclear cells (PBMC) were stored frozen in liquid nitrogen and prior to use, vials of frozen cells (0.5×10^8 PBMCs/vial or 1×10^8 PBMCs/vial) were quick thawed in a 42° C. water bath. Cells were promptly transferred to a 15 mL tube with 5 mL FBS dropwise then, then 6 mL of RF10 was added. Cells were pelleted at 300 g for 10 min at room temperature. Following aspiration, the cells were resuspended in RF10, pooled into a 50 mL tube which was topped up with RF10. PBMC were pelleted again at 300 g for 10 min at room temperature. Following aspiration, the cells were resuspended in PBS(−/−) and counted. CD4+ T cells were then isolated from 4×10^8 PBMCs that were pelleted and resuspended in PBS(−/−) at 1×10^7 cells/40 μL. 10 μL of CD4+ T cell Biotin-Antibody cocktail (Miltenyi Biotec) for every 1×10^7 cells was added and the mix refrigerated for 5 min. 30 μL of PBS(−/−) for every 1×10^7 cells was added, and 20 μL of the CD4+ T cell MicroBeads for every 1×10^7 cells was added and the mix refrigerated for 10 min. Unlabelled CD4+ T cells were then isolated by negative selection using magnetic separation. CD4+ T cells were then counted before being diluted to 4×10^6 cells/500 μL in RF10 for each condition and seeded into a 48 well plate.
Latent HIV was reactivated in the presence of the HIV integrase inhibitor Raltagravir (Ral) to prevent any further rounds of infection. Ral was made to [2 μM] in RF10+IL-2 (2 U/mL), and used to make 1 mL preparation of each drug up at [×2]. 500 μL of the [×2 Ral/IL-2/drug] was then added to the appropriate wells containing cells. Cells were transported to PC3 and incubated for 72 hrs.
Following reactivation, 800 μL of cell supernatant was transferred to labeled 1.5 mL screwcap tubes, pelletted at 800 g for 10 min then transferred to a second set of tubes and frozen for possible use at a later date. 800 μL of PBS(−/−) was added to each well to mix the cells and 50 μL of cells transferred to another set of tubes for live/dead staining and flow cytometry. Cells were pelleted at 400 g for 10 min, the media aspirated and cells resuspended in 100 μL of a [×1] APC-cy7 live/dead stain (Life technologies).

For data set [3], the system named is HIV-1 long terminal repeat (LTR)-driven luciferase reporter gene in FlipIn.FM HEK293 cells. Description: cells. The class given is cell-based. Conditions: for EC50: Human immunodeficiency virus 1, HEK293, HIV-LTR driven latent reporter, 11-point, 2-fold dilution series, highest concentration 40 μM, read-out: Latent reporter Av EC50; for fold change in HIV-1 gene expression over the unstimulated baseline: FlipIn.FM model, alone at 10 μM and in combination, 48 hrs post treatment. The method, then: FIG. 44. […] The FlipIn.FM model of HIV-1 latency was treated with JQ1 (+) and DP#14 (Compound 7) alone at 10 μM and in combination, and the HIV-1 gene expression measured 48 hrs post treatment. Error bars represent standard deviation of n=3 experiments. OPTI represents media alone, without DP#14.
FIG. 46. […] The FlipIn.FM model of HIV-1 latency was treated with PFI-1 and DP#14 alone at 10 μM and in combination, and the HIV-1 gene expression measured 48 hrs post treatment. Error bars represent standard deviation of n=3 experiments. OPTI represents media alone, without DP#14.
Explicitly, HEK293 derived FlipIn-FM and FlipIn-RV dual reporter cells each include a single stable HIV-1 long terminal repeat (LTR)-driven luciferase reporter genes, with a second complimentary non-HIV (off-target) luciferase reporter. These cell lines model post integration latency and read-through transcription by expressing a low level of HIV-1 Tat protein via a native Internal Ribosome Entry Site (IRES) found within Tat, from a chimeric cellular-tat gene cassette. FlipIn-FM and FlipIn-RV clones were chosen for low basal levels of LTR activity and high responsiveness to Tat as well as many Latency Reversing Agents (LRAs).
The dual reporter cell lines contain three stably integrated constructs that together allow for detection of novel LRAs, capable of potent and specific HIV reactivation. The FlipIn.FM line contains a proviral LTR-driven nef/CBR reporter fusion gene, allowing for detection of viral gene expression. A second CMV-driven CBG luciferase reporter allows for detection of off target drug effects, including non-specific activation and drug toxicity. The third construct contains the first coding exon of HIV-1 tat, within human Growth Hormone (hGH) as a chimeric gene, expressing HIV-1 Tat protein from an IRES mechanism that underlies the tat exon. This construct models read-through transcription and the low level of Tat protein expression that occurs during post integration latency. The counter screening reverse cell line, FlipIn.RV, contains the same three components with the Click Beetle Luciferase genes in the opposite orientation (LTR-CBG and CMV-CBR) for counter screening.
Compounds were evaluated in an 11-point titration using normal CMV-CBG/LTR-CBR reporter cell line and an 11 point reverse CMV-CBR/LTR-CBG reporter cell line.
The FlipIn cell lines were therefore designed with a dual purpose, to detect novel compounds that reactivate HIV-1 and to also screen out compounds that behaved in a largely non-specific manner. To achieve the latter, the cell lines contain an “off target” reporter gene construct, driven by the unrelated CMV-IE promoter, that allows for the detection of drug mediated off target effects including global gene activation as well as possible toxicity.
The HIV-LTR driven latent reporter gene identifies the HIV-specific activation, and the term “global reporter” is interchangeable with “off target reporter” and refers to the unrelated CMV-IE promoter driven reporter gene, which is used as a surrogate for global gene activation. […] The highest concentration tested here was 40 μM.

For another data set, the system named is J.Lat10.6 T-cell line. Description: Dose dependent toxicity in the J.Lat model. The class given is cell-based. Conditions: for concentration above which notable toxicity: dose dependent toxic effect.
Where [4] appears, read: normalized between unstimulated baseline and PMA positive control as 100%, concentration not given.

Read-outs that look alike come from different tables or passages of the source. Where only a bound is given, the exact number is not on record here.

Consider `Cc1cnc(NC(=O)CCCOc2ccccc2)s1` [Compound 41], for which, in data set [1], the IC50 was around 16500 nM. Further, the “induction of HIV-1 gene expression, % of the normalized value” (from here on “induction … % of the normalized value”) in data set [2] (at 5 μM, normalized between unstimulated baseline and PMA as 100%) turned out to be 25%. Moreover, the EC50 in data set [3] amounted to 14000 nM. The dose dependent toxicity result in the data set on J.Lat10.6 T-cell line (dosed as high as 40 μM) is reported as “no such toxicity”.
Take `Cc1ccc(N2CCN(C(=O)Nc3ncc(Cl)s3)CC2)cc1Cl` [Compound 64]: in data set [2] (at 100 nM, n=4 or n=5 donors), the “activation of HIV-1 gene expression in leukapheresis samples” value is on record as “activation in only one patient”. Further, the EC50 in data set [3] came out at 220 nM.
With `Cc1ccc(N2CCN(C(=O)Nc3ncc(C#N)s3)CC2)cc1Cl` [Compound 65], the 50% inhibitory concentration (IC50) in data set [1] turned out to be 650 nM. Moreover, in data set [3], the EC50 is 330 nM. Besides, in the data set with J.Lat10.6 T-cell line, the “concentration above which notable toxicity” value was “above 1.25 μM”.
Regarding `Cc1cnc(NC(=O)N2CCN(c3cnc(Cl)c(Cl)c3)CC2)s1` [Compound 73], the IC50 in data set [1] is below 110 nM. Moreover, in data set [3], the EC50 was 280 nM. In the data set with J.Lat10.6 T-cell line, the “concentration above which notable toxicity” value was above 156 nM.
For the compound `Cc1sc2c(c1C)C(c1ccc(Cl)cc1)=N[C@@H](CC(=O)OC(C)(C)C)c1nnc(C)n1-2` [JQ1 (+), reference compound], the “percent of the cells treated with reactivated HIV-1 gene expression” value in data set [1] is given as 22.8%. In data set [2] (setting [4]), the “induction … % of the normalized value” came to 39%. Besides, the “fold change in HIV-1 gene expression over the unstimulated baseline” value in data set [3] amounted to 12.8 fold.
With `COc1ccccc1S(=O)(=O)Nc1ccc2c(c1)CN(C)C(=O)N2` [PFI-1, reference compound], the “percent of the cells treated with reactivated HIV-1 gene expression” value in data set [1] was 20.6%. Also, in data set [3], the “fold change in HIV-1 gene expression over the unstimulated baseline” value came out at 3.6 fold.
Take `Cc1[nH]c2ccccc2c1CCNCc1ccc(/C=C/C(=O)NO)cc1` [Panabinostat, reference compound]: the “induction … % of the normalized value” in data set [2] (setting [4]) worked out at 57%.
On the same count and under the same terms, under `C/C=C1\NC(=O)[C@H]2CSSCC/C=C/[C@H](CC(=O)N[C@H](C(C)C)C(=O)N2)OC(=O)[C@H](C(C)C)NC1=O` [Romidepsin, reference compound] stands 67%.
As for `O=C(CCCCCCC(=O)Nc1ccccc1)NO` [Vorinostat, suberanilohydroxamic acid, reference compound], the “induction … % of the normalized value” in data set [2] (setting [4]) is 58%.

In general, IC50 refers to the midpoint of a concentration-inhibition curve. What is called EC50 is the midpoint of the concentration-response curve.

Values taken from US20190330167A1, “ACTIVATORS OF HIV LATENCY” (priority 2016, published 2019).
